Source: ChEMBL document CHEMBL1671743, “Affinity of ceftobiprole for penicillin-binding protein 2b in Streptococcus pneumoniae strains with various susceptibilities to penicillin” (Antimicrob Agents Chemother, 2010)
≈ marks a conversion by molar mass, not a printed value.

Columns and labels:
Streptococcus pneumoniae [1] = assay: Antimicrobial activity against penicillin sensitive Streptococcus pneumoniae isolate 8865 by broth microdilution method; assay type: functional
Streptococcus pneumoniae [2] = assay: Antimicrobial activity against penicillin intermediate resistant Streptococcus pneumoniae isolate 8882 harboring PBP2b 443SSNA mutant by broth microdilution method; assay type: functional
Streptococcus pneumoniae [3] = assay: Antimicrobial activity against penicillin intermediate resistant Streptococcus pneumoniae isolate 8009 harboring PBP2b 443SSNA mutant by broth microdilution method; assay type: functional
Streptococcus pneumoniae [4] = assay: Antimicrobial activity against penicillin resistant Streptococcus pneumoniae isolate 8819 harboring PBP2b 443SSNA mutant by broth microdilution method; assay type: functional
[5] = target: T1, Penicillin-binding protein 2B (Streptococcus pneumoniae serotype 4 (strain ATCC BAA-334 / TIGR4), UniProt P0A3M5); assay: Inhibition of Bocillin FL binding to Streptococcus pneumoniae isolate 8865 PBP2b
T1 sequence (P0A3M5 whole entry): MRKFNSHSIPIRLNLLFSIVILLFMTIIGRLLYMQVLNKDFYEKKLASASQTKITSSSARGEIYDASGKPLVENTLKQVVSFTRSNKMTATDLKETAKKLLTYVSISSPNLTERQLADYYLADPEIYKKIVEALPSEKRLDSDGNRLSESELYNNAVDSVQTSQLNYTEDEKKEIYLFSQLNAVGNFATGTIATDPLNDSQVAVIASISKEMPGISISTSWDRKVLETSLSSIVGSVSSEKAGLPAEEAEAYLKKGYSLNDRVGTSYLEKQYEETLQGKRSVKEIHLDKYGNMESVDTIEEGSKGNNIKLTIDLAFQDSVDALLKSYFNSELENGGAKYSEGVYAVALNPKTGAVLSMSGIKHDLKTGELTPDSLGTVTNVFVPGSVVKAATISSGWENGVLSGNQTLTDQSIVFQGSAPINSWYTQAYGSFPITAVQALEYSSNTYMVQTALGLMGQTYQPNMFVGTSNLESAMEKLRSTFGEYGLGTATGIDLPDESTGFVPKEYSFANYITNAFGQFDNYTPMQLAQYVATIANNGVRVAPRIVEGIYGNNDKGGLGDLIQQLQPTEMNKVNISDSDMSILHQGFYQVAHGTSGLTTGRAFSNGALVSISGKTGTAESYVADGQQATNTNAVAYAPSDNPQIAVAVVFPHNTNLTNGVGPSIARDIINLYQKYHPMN

[6] = target: T2, Penicillin-binding protein 2B (Streptococcus pneumoniae (strain ATCC BAA-255 / R6), UniProt P0A3M6, T446A); assay: Inhibition of Streptococcus pneumoniae isolate 8882 Bocillin FL binding to PBP2b 443SSNA mutant
[7] = target: T2, Penicillin-binding protein 2B; assay: Inhibition of Bocillin FL binding to PBP2b PBP2b 443SSNA mutant in Streptococcus pneumoniae isolate 8009 harboring E333G, N470K, E476G, T489S, E506D, and N538D mutant genes
[8] = target: Penicillin-binding protein 2B (Streptococcus pneumoniae (strain ATCC BAA-255 / R6), UniProt P0A3M6, A619G); assay: Inhibition of Bocillin FL binding to PBP2b in Streptococcus pneumoniae isolate 8819 harboring E333G, I361L, E369D, S412P, N422Y, T426K, Q427L, Q438E, L455I, S473T, E476G, S480A, T489A, N538D, D561E, Q564K, and D625G mutant genes
Streptococcus pneumoniae [9] = assay: Antimicrobial activity against laboratory-derived Streptococcus pneumoniae isolate R6 by broth microdilution method; assay type: functional
Streptococcus pneumoniae [10] = assay: Antimicrobial activity against laboratory-derived Streptococcus pneumoniae isolate R6 harboring Thr446Ala mutant gene by broth microdilution method; assay type: functional
Streptococcus pneumoniae [11] = assay: Antimicrobial activity against laboratory-derived Streptococcus pneumoniae isolate R6 harboring Thr446Ala/Ala-619-Gly mutant gene by broth microdilution method; assay type: functional
[12] = target: T1, Penicillin-binding protein 2B; assay: Inhibition of Bocillin FL binding to PBP2b in laboratory-derived Streptococcus pneumoniae isolate R6
[13] = target: T2, Penicillin-binding protein 2B; assay: Inhibition of Bocillin FL binding to PBP2b Thr446Ala mutant in laboratory-derived Streptococcus pneumoniae isolate R6
[14] = target: Penicillin-binding protein 2B (Streptococcus pneumoniae (strain ATCC BAA-255 / R6), UniProt P0A3M6, A619G/T446A); assay: Inhibition of Bocillin FL binding to PBP2b Thr446Ala/Ala-619-Gly mutant in laboratory-derived Streptococcus pneumoniae isolate R6
Chain of Penicillin-binding protein 2B (Streptococcus pneumoniae (strain ATCC BAA-255 / R6), UniProt P0A3M6, A619G/T446A) (P0A3M6 whole entry T446A/A619G): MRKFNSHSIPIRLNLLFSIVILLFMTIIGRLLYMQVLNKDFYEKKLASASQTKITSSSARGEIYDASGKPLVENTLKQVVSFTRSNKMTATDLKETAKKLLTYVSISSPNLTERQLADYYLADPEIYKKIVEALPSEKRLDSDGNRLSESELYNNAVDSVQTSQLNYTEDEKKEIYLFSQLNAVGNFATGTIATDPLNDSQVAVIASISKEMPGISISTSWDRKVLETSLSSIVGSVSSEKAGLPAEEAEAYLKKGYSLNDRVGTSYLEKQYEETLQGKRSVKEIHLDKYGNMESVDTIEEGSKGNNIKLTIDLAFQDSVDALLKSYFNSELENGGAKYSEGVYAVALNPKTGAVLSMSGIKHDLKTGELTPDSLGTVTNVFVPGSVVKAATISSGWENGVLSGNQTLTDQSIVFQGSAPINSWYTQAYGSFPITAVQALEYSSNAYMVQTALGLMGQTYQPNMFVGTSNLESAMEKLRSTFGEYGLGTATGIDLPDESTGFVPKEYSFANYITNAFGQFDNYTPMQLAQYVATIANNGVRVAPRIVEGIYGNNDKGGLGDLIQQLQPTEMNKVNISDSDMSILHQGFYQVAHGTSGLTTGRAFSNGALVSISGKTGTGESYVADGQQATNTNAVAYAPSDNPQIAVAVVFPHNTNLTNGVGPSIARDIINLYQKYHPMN

T2 sequence (P0A3M6 whole entry T446A): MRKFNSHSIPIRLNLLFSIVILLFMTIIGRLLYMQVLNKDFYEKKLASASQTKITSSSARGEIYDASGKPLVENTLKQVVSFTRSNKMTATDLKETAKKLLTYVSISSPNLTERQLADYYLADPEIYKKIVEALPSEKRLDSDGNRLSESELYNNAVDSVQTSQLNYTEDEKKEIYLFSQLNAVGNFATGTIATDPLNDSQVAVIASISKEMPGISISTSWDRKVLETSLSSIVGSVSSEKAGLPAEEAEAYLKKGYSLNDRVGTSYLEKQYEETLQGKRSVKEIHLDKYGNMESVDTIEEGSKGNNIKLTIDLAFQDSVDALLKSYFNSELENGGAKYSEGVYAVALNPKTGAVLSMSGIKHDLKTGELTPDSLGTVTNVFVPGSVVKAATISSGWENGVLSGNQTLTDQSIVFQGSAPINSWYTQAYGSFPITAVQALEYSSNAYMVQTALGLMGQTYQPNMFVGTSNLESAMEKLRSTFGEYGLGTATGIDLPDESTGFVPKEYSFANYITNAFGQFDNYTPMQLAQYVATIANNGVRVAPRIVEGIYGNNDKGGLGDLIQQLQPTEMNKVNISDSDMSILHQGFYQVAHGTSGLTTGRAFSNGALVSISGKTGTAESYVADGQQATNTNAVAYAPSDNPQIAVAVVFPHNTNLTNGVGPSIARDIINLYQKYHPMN
Chain of Penicillin-binding protein 2B (Streptococcus pneumoniae (strain ATCC BAA-255 / R6), UniProt P0A3M6, A619G) (P0A3M6 whole entry A619G): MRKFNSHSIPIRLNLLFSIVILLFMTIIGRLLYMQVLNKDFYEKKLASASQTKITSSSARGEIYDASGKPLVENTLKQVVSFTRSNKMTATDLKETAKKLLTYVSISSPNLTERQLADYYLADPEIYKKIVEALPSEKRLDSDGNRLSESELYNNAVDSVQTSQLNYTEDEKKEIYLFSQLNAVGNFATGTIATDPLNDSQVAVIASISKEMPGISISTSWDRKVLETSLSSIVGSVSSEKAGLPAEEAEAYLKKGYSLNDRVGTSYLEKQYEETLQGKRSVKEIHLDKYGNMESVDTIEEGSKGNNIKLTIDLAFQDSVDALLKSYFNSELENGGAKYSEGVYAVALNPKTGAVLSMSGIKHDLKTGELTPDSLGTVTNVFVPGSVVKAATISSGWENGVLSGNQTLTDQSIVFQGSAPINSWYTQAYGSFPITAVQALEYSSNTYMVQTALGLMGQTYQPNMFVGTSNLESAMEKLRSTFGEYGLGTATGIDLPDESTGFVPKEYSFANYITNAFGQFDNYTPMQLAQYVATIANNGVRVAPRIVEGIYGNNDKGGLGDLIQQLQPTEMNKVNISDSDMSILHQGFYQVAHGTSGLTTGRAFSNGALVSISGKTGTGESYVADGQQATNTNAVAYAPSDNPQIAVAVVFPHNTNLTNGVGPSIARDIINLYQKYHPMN

`Nc1nc(/C(=N/O)C(=O)N[C@@H]2C(=O)N3C(C(=O)O)=C(/C=C4\CCN([C@@H]5CCNC5)C4=O)CS[C@H]23)ns1` [CEFTOBIPROLE] was tested, and the MIC (Streptococcus pneumoniae [1]) was 0.008 µg/mL (≈ 0.015 µM), the MIC (Streptococcus pneumoniae [2]) was 0.008 µg/mL (≈ 0.015 µM) and the MIC (Streptococcus pneumoniae [3]) was 0.015 µg/mL (≈ 0.0281 µM). For the same compound, the MIC (Streptococcus pneumoniae [4]) was 1 µg/mL (≈ 1.87 µM), the IC50 [5] was 112 nM and the IC50 [6] was 2240 nM. For the same compound, the IC50 [7] was 1680 nM, the IC50 [8] was greater than 15000 nM and the MIC (Streptococcus pneumoniae [9]) was 0.002 µg/mL (≈ 0.00374 µM). For the same compound, the MIC (Streptococcus pneumoniae [10]) was 0.002 µg/mL (≈ 0.00374 µM), the MIC (Streptococcus pneumoniae [11]) was 0.004 µg/mL (≈ 0.00748 µM) and the IC50 [12] was 112 nM. The IC50 [13] was 1310 nM and the IC50 [14] was 3180 nM.

`CC1(C)S[C@@H]2[C@H](NC(=O)Cc3ccccc3)C(=O)N2[C@H]1C(=O)O` [PENICILLIN G] showed an MIC (Streptococcus pneumoniae [1]) of no more than 0.015 µg/mL, an MIC (Streptococcus pneumoniae [2]) of 0.12 µg/mL (≈ 0.359 µM) and an MIC (Streptococcus pneumoniae [3]) of 0.12 µg/mL (≈ 0.359 µM). For the same compound, the MIC (Streptococcus pneumoniae [4]) was 8 µg/mL (≈ 23.9 µM), the IC50 [5] was 23.9 nM and the IC50 [6] was 7480 nM. The IC50 [7] was 7480 nM, the IC50 [8] was greater than 23900 nM and the MIC (Streptococcus pneumoniae [9]) was 0.015 µg/mL (≈ 0.0449 µM). It also gave an MIC (Streptococcus pneumoniae [10]) of 0.015 µg/mL (≈ 0.0449 µM), an MIC (Streptococcus pneumoniae [11]) of 0.03 µg/mL (≈ 0.0897 µM) and an IC50 [12] of 449 nM. For the same compound, the IC50 [13] was 2390 nM and the IC50 [14] was 5380 nM.

With `CO/N=C(\C(=O)N[C@@H]1C(=O)N2C(C(=O)O)=C(CSc3nc(=O)c(O)nn3C)CS[C@H]12)c1csc(N)n1` [CEFTRIAXONE] the MIC (Streptococcus pneumoniae [1]) was 0.03 µg/mL (≈ 0.0541 µM), the MIC (Streptococcus pneumoniae [2]) was 0.06 µg/mL (≈ 0.108 µM) and the MIC (Streptococcus pneumoniae [3]) was 0.06 µg/mL (≈ 0.108 µM). The MIC (Streptococcus pneumoniae [4]) was 8 µg/mL (≈ 14.4 µM), the IC50 [5] was greater than 14400 nM and the IC50 [6] was greater than 14400 nM. For the same compound, the IC50 [7] was greater than 14400 nM, the IC50 [8] was greater than 14400 nM and the MIC (Streptococcus pneumoniae [9]) was 0.008 µg/mL (≈ 0.0144 µM). The MIC (Streptococcus pneumoniae [10]) was 0.008 µg/mL (≈ 0.0144 µM), the MIC (Streptococcus pneumoniae [11]) was 0.015 µg/mL (≈ 0.027 µM) and the IC50 [12] was greater than 14400 nM.
